The values below come from patent EP4696306A1, “ADENOSINE TRIPHOSPHATE SECRETION INHIBITOR, HEPATIC STELLATE CELL ACTIVATION INHIBITOR, HEPATIC STELLATE CELL DEACTIVATOR, HEPATIC FIBROSIS THERAPEUTIC AGENT, NON-ALCOHOLIC STEATOHEPATITIS THERAPEUTIC AGENT, PSORIASIS THERAPEUTIC AGENT, AND USE OF COMPOUND FOR PRODUCING ADENOSINE TRIPHOSPHATE …” (KURUME UNIVERSITY, priority 2023, dated 2024).

One series deals with catecholamine transport. Nature of the series: Catecholamine (3H-dopamine) transport in chromaffin granule membranes. The format is biochemical, bovine. The procedure:
(§1) Chromaffin granule membranes were prepared from adrenal glands collected from slaughtered cattle according to Reference A (Nathan Nelson et al., 1988, Chromaffin Granule Proton Pump, Methods in Enzymology, 157, 619-633). Chromaffin granule membranes prepared by sucrose density gradient centrifugation were suspended in 2 ml of SME buffer (20 mM MOPS-tris (pH 7.0), 0.3 M sucrose, 5 mM EDTA, 10 µg/ml leupeptin, and 10 µg/ml pepstatin) + 25% glycerol, and the resulting suspension was aliquoted and stored at -80°C. Under these conditions, the ATP transport activity, the V-ATPase activity, and the catecholamine transport activity remain fully active for at least one year.
A catecholamine transport inhibition experiment was carried out in the same manner as the ATP transport experiment except that the experiment used a measurement liquid containing 20 mM MOPS-tris (pH 7.0), 0.1 M sucrose, 0.1 M potassium chloride, 5 mM magnesium acetate, and about 5 µg of chromaffin granule membranes. To 0.5 ml of the measurement liquid, 2 mM ATP was added, and the resulting mixture was incubated at 30°C for about 5 minutes, followed by addition of^3 [H]-dopamine thereto to a final concentration of 10 µM. After further incubation at 30°C for 15 minutes, 0.2 ml of the reaction liquid was subjected to suction filtration through a Millipore MCE membrane filter with a pore size of 0.45 µm, and the radioactivity on the filter was measured (N = 3). The substrate, ^3[H]-dopamine, was prepared by mixing 3,4-[RING-2,5,6-^3H]dihydroxyphenylethylamine (dopamine) (30 Ci/mmol) (manufactured by New England Nuclear) with dopamine hydrochloride (manufactured by LKT Laboratories) such that a final concentration of 0.1 mM was achieved during the use.
(§2) Chromaffin granule membrane vesicles were prepared in the same manner as in Example 5, and uptake of radiolabeled ATP into the vesicles was measured. Transport activity of catecholamine (dopamine) and ATP-dependent proton transport by V-ATPase were also measured in the same manner as in Example 5.

Series [1] deals with T1, V-ATPase (Bos taurus, UniProt P31404).
T1 construct: from tissue; host or cells: bovine adrenal medulla chromaffin granule membranes
The series can be described thus: ATP-dependent proton transport by V-ATPase (acridine orange / oxonol-V fluorescence quenching). The series is classed as biochemical, bovine. The procedure:
as §1
ATP-dependent proton transport by V-ATPase was measured according to Reference B. Proton transport activity was measured using a spectrofluorometer at excitation wavelength of 492 nm and a fluorescence wavelength 540 nm, wherein fluorescence quenching of acridine orange was used as an index (N = 2). The transmembrane potential generated was measured using a spectrofluorometer at an excitation wavelength of 580 nm and a fluorescence wavelength of 630 nm, wherein fluorescence quenching of oxonol-V was used as an index (N = 2). The acridine measurement liquid (2 ml) contained 20 mM MOPS-tris (pH 7.0), 0.2 M sucrose, 0.1 M potassium chloride, 5 mM magnesium acetate, 0.2 µg valinomycin, 2 µM acridine orange, and about 20 µg of chromaffin granules. The oxonol-V measurement liquid (2 ml) contained 20 mM MOPS-tris (pH 7.0), 0.3 M sucrose, 5 mM magnesium acetate, 5 µM oxonol-V, and about 20 µg of chromaffin granules.
as §2

Another series has as its system MCD diet-induced NASH. As to conditions: administration of clodronate; Non Patent Literature 4; cited from earlier work.
In another series the target is T2, VNUT (Homo sapiens, UniProt Q9BYT1).
T2 sequence (Q9BYT1 1-436): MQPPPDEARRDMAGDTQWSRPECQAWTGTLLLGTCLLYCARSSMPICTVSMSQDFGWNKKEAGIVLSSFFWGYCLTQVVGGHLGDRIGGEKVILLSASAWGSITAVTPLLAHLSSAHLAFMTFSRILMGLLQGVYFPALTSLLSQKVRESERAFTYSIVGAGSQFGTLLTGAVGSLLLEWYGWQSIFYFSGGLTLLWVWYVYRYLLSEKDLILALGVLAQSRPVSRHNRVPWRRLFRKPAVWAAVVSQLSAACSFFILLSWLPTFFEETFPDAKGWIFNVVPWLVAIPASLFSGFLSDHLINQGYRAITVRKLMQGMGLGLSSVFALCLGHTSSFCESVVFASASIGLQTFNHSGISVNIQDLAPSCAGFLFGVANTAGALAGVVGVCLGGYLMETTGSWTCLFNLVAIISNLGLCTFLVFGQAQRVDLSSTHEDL
Nature of the series: Inhibitory effect on VNUT (data not shown). The format is biochemical.

The conditions of series [2]: 1 g of imeglimin hydrochloride daily for one week; cited from earlier work.
The target of series [3] is V-ATPase (Homo sapiens, UniProt P38606). The series can be described thus: Inhibitory effect on V-ATPase (data not shown). The series is classed as biochemical.
Setting [4] is: concentrations of up to 5 mM, data not shown.

T1 sequence (P31404 whole entry, looked up): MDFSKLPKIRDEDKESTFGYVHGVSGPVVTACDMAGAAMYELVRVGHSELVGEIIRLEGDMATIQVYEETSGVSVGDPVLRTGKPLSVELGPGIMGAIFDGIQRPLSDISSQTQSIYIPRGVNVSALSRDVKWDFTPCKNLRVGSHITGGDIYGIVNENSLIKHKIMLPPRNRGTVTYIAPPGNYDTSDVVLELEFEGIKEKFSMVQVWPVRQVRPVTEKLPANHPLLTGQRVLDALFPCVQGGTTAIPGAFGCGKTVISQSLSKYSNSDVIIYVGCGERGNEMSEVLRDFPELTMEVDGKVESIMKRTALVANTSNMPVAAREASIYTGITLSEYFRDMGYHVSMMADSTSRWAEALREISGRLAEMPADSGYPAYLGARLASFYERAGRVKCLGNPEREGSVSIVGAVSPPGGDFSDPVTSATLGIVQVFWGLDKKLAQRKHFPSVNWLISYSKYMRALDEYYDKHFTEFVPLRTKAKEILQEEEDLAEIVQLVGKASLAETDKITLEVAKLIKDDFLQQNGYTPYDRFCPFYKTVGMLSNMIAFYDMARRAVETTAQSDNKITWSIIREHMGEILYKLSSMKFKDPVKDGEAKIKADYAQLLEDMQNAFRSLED
Chain of V-ATPase (Homo sapiens, UniProt P38606) (P38606 whole entry): as the sequence (P31404 whole entry, looked up) above, with R10L, V131I, N157S, I199V, S204T, E576D, V590L, A599S counted along it

With `C=C(OP(=O)(O)O)C(=O)O` [PEP, phosphoenolpyruvic acid], the “inhibition of catecholamine transport” value in the series on catecholamine transport (setting [4]) is given as “did not inhibit”. The “ATP-dependent dopamine transport activity” value in the series with catecholamine transport (in the presence of 5 mM PEP, control 11.07 ± 0.129, N = 3) is given as 12.41 ± 0.250 nmol/mg protein. Also, the “quenching of oxonol-V fluorescence (transmembrane potential)” value at V-ATPase [1] (addition of 5 mM PEP, ATP alone quenched by 40%, N = 2) is listed as “did not change the level of quenching”. Also, the “quenching of acridine orange fluorescence (proton transport)” value at V-ATPase [1] (addition of 5 mM PEP, ATP alone quenched by 62%, N = 2) is recorded as “did not change the level of quenching”. In addition, the “inhibition of V-ATPase” value at V-ATPase [1] (setting [4]) is reported as “did not inhibit”.

As to `O=P(O)(O)C(Cl)(Cl)P(=O)(O)O` [clodronate], the “NASH activity score, inflammatory cell infiltration, and hepatic fibrosis” value in the series with MCD diet-induced NASH is “improves the NASH activity score, inflammatory cell infiltration, and hepatic fibrosis”.

With `C[C@H]1N=C(N(C)C)N=C(N)N1` [imeglimin], at VNUT, the “inhibitory effect on VNUT” value is listed as “neither imeglimin nor metformin exhibited a strong inhibitory effect”. The blood imeglimin concentration in series [2] is recorded as 9 µM. Further, the “inhibitory effect on V-ATPase” value against V-ATPase [3] was “neither imeglimin nor metformin exhibited a strong inhibitory effect”.
